Test results published in patent US11884676B2, “Substituted pyrimido[1,2-b]pyridazines as positive allosteric modulators of the muscarinic acetylcholine receptor M4” (Vanderbilt University, priority 2020, dated 2024).

Biological target: T1, Human M4 (Homo sapiens, UniProt P08173)
T1 construct: expressed in transfected cells
T1 sequence (P08173 1-479): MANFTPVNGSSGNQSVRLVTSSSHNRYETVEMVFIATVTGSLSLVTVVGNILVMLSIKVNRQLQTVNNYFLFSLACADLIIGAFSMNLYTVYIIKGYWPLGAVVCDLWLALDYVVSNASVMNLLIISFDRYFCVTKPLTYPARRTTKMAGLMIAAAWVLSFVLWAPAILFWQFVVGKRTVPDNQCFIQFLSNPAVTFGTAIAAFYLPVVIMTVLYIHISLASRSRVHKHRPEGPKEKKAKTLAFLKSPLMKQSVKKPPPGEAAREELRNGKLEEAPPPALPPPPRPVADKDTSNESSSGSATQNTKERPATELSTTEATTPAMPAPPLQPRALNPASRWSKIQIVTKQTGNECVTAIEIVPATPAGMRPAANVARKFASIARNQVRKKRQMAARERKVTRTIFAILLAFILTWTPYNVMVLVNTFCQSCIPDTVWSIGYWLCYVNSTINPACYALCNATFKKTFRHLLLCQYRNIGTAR
Assay: mAChR M4 cell-based functional assay (calcium flux, PAM mode)
Conditions: hM4-Gqi5 CHO-K1 cells; for Emax at 30 µM: CHO-K1, % ACh maximum at 30 μM; for EC50: concentration-dependent increase in the EC20 acetylcholine response
Summary of the method: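 CHO-K1 cells stably co-expressing human M4 and chimeric Gqi5, Fluo-4 loaded; compound added first (11-point, 1:3 CRC), then EC20 acetylcholine at 144 s and EC80 at 230 s. PAM activity read on FDSS as concentration-dependent increase of EC20 ACh calcium response; EC50 and Emax from four-parameter logistic fit.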

| Emax at 30 µM [%] | EC50 [nM] | Compound |
| --- | --- | --- |
| 88 | 52 | [2H]C1(Oc2ccc3c(c2)OCO3)CCN(c2nn3c(=O)cc(C)nc3cc2C)CC1 [Compound 58, 7-(4-(benzo[d][1,3]dioxol-5-yloxy)piperidin-1-yl-4-d)-2,8-dimethyl-4H-pyrimido[1,2-b]pyridazin-4-one] |
| 85 | 59 | [2H]C1(Oc2ccc3c(c2)OCCCO3)CCN(c2nn3c(=O)cc(C)nc3cc2C)CC1 [Compound 59, 7-(4-((3,4-dihydro-2H-benzo[b][1,4]dioxepin-7-yl)oxy)piperidin-1-yl-4-d)-2,8-dimethyl-4H-pyrimido[1,2-b]pyridazin-4-one] |
| 91 | 28 | [2H]C1(Oc2ccc3c(c2)OCCO3)CCN(c2nn3c(=O)c(C)c(C)nc3cc2C)CC1 [Compound 60, 7-(4-((2,3-dihydrobenzo[b][1,4]dioxin-6-yl)oxy)piperidin-1-yl-4-d)-2,3,8-trimethyl-4H-pyrimido[1,2-b]pyridazin-4-one] |
| 99 | 47 | [2H]C1(Oc2ccc3c(c2)OCCO3)CCN(c2nn3c(=O)cc(C)nc3cc2C)CC1 [Compound 62, 7-(4-((2,3-dihydrobenzo[b][1,4]dioxin-6-yl)oxy)piperidin-1-yl-4-d)-2,8-dimethyl-4H-pyrimido[1,2-b]pyridazin-4-one] |
| 102 | 342 | [2H]C1(Oc2ccc3c(c2)OCO3)CCN(c2nn3c(=O)cc(C(F)(F)F)nc3cc2C)CC1 [Compound 63, 7-(4-(benzo[d][1,3]dioxol-5-yloxy)piperidin-1-yl-4-d)-8-methyl-2-(trifluoromethyl)-4H-pyrimido[1,2-b]pyridazin-4-one] |
| 108 | 20 | [2H]C1(Oc2ccc3c(c2)OC([2H])([2H])C([2H])([2H])O3)CCN(c2nn3c(=O)cc(C(F)F)nc3cc2C)CC1 [Compound 65, 2-(difluoromethyl)-7-(4-((2,3-dihydrobenzo[b][1,4]dioxin-6-yl-2,2,3,3-d4)oxy)piperidin-1-yl-4-d)-8-methyl-4H-pyrimido[1,2-b]pyridazin-4-one] |
| 108 | 17 | [2H]C1(Oc2ccc3c(c2)OCO3)CCN(c2nn3c(=O)cc(C(F)F)nc3cc2C)CC1 [Compound 66, 7-(4-(benzo[d][1,3]dioxol-5-yloxy)piperidin-1-yl-4-d)-2-(difluoromethyl)-8-methyl-4H-pyrimido[1,2-b]pyridazin-4-one] |
| 91 | 288 | [2H]C1(Oc2ccc3c(c2)OCO3)CCN(c2nn3c(=O)ccnc3cc2C)CC1 [Compound 68, 7-(4-(benzo[d][1,3]dioxol-5-yloxy)piperidin-1-yl-4-d)-8-methyl-4H-pyrimido[1,2-b]pyridazin-4-one] |
| 97 | 20 | [2H]C1(Oc2ccc3c(c2)OC([2H])([2H])C([2H])([2H])O3)CCN(c2nn3c(=O)ccnc3c(C)c2C)CC1 [Compound 69, 7-(4-((2,3-dihydrobenzo[b][1,4]dioxin-6-yl-2,2,3,3-d4)oxy)piperidin-1-yl-4-d)-8,9-dimethyl-4H-pyrimido[1,2-b]pyridazin-4-one] |
| 96 | 16 | [2H]C1(Oc2ccc3c(c2)OCCO3)CCN(c2nn3c(=O)ccnc3c(C)c2C)CC1 [Compound 70, 7-(4-((2,3-dihydrobenzo[b][1,4]dioxin-6-yl)oxy)piperidin-1-yl-4-d)-8,9-dimethyl-4H-pyrimido[1,2-b]pyridazin-4-one] |
| 95 | 21 | Cc1c(N2CCC(Oc3ccc4c(c3)OCCO4)CC2)nn2c(=O)ccnc2c1C [Compound 71, 7-(4-((2,3-dihydrobenzo[b][1,4]dioxin-6-yl)oxy)piperidin-1-yl)-8,9-dimethyl-4H-pyrimido[1,2-b]pyridazin-4-one] |
| 101 | 91 | Cc1ccc(OC2CCN(c3nn4c(=O)ccnc4c(C)c3C)CC2)cc1 [Compound 77, 8,9-dimethyl-7-(4-(p-tolyloxy)piperidin-1-yl)-4H-pyrimido[1,2-b]pyridazin-4-one] |

The remaining lines, values behind:

| Compound | Emax at 30 µM [%] | EC50 [nM] |
| --- | --- | --- |
| Cc1cc2nccc(=O)n2nc1N1CC[C@@H](Oc2ccc3c(c2)CCOC3)[C@H](F)C1 [Compound 54, 7-((3R,4R)-3-fluoro-4-(isochroman-6-yloxy)piperidin-1-yl)-8-methyl-4H-pyrimido[1,2-b]pyridazin-4-one] | 89 | 319 |
| Cc1cc2nccc(=O)n2nc1N1CC[C@@H](Oc2ccc3c(c2)OCCCO3)[C@H](F)C1 [Compound 55, 7-((3R,4R)-4-((3,4-dihydro-2H-benzo[b][1,4]dioxepin-7-yl)oxy)-3-fluoropiperidin-1-yl)-8-methyl-4H-pyrimido[1,2-b]pyridazin-4-one] | 80 | 135 |
| Cc1cc2nccc(=O)n2nc1N1CC[C@@H](Oc2ccc3c(c2)CCO3)[C@H](F)C1 [Compound 56, 7-((3R,4R)-4-((2,3-dihydrobenzofuran-5-yl)oxy)-3-fluoropiperidin-1-yl)-8-methyl-4H-pyrimido[1,2-b]pyridazin-4-one] | 80 | 206 |
| Cc1cc2nccc(=O)n2nc1N1CC[C@@H](Oc2ccc3c(c2)OCCC3)[C@H](F)C1 [Compound 57, 7-((3R,4R)-4-(chroman-7-yloxy)-3-fluoropiperidin-1-yl)-8-methyl-4H-pyrimido[1,2-b]pyridazin-4-one] | 83 | 149 |
| [2H]C1(Oc2ccc3c(c2)OCCO3)CCN(c2nn3c(=O)cc(C(F)F)nc3cc2C)CC1 [Compound 61, 2-(difluoromethyl)-7-(4-((2,3-dihydrobenzo[b][1,4]dioxin-6-yl)oxy)piperidin-1-yl-4-d)-8-methyl-4H-pyrimido[1,2-b]pyridazin-4-one] | 94 | 12 |
| [2H]C1(Oc2ccc3c(c2)OCCCO3)CCN(c2nn3c(=O)cc(C(F)(F)F)nc3cc2C)CC1 [Compound 64, 7-(4-((3,4-dihydro-2H-benzo[b][1,4]dioxepin-7-yl)oxy)piperidin-1-yl-4-d)-8-methyl-2-(trifluoromethyl)-4H-pyrimido[1,2-b]pyridazin-4-one] | 104 | 172 |
| [2H]C1(Oc2ccc3c(c2)OCCCO3)CCN(c2nn3c(=O)cc(C(F)F)nc3cc2C)CC1 [Compound 67, 2-(difluoromethyl)-7-(4-((3,4-dihydro-2H-benzo[b][1,4]dioxepin-7-yl)oxy)piperidin-1-yl-4-d)-8-methyl-4H-pyrimido[1,2-b]pyridazin-4-one] | 109 | 17 |
| Cc1cc(=O)n2nc(N3CCC(Oc4ccc5c(c4)C(=O)NCC5)CC3)c(C)cc2n1 [Compound 72, 2,8-dimethyl-7-(4-((1-oxo-1,2,3,4-tetrahydroisoquinolin-7-yl)oxy)piperidin-1-yl)-4H-pyrimido[1,2-b]pyridazin-4-one] | 74 | 1540 |
| Cc1cc(=O)n2nc(N3CCC(Oc4ccc5c(c4)C(=O)N(C)CC5)CC3)c(C)cc2n1 [Compound 73, 2,8-dimethyl-7-(4-((2-methyl-1-oxo-1,2,3,4-tetrahydroisoquinolin-7-yl)oxy)piperidin-1-yl)-4H-pyrimido[1,2-b]pyridazin-4-one] | 85 | 2630 |
| Cc1cc(=O)n2nc(N3CCC(Oc4ccc5c(c4)CCN(C)C5=O)CC3)c(C)cc2n1 [Compound 74, 2,8-dimethyl-7-(4-((2-methyl-1-oxo-1,2,3,4-tetrahydroisoquinolin-6-yl)oxy)piperidin-1-yl)-4H-pyrimido[1,2-b]pyridazin-4-one] | 84 | 2360 |
| COc1ncc(OC2CCN(c3nn4c(=O)ccnc4cc3C)CC2)cc1C [Compound 75, 7-(4-((6-methoxy-5-methylpyridin-3-yl)oxy)piperidin-1-yl)-8-methyl-4H-pyrimido[1,2-b]pyridazin-4-one] | 84 | 1510 |
| COCc1ccc(OC2CCN(c3nn4c(=O)ccnc4cc3C)CC2)cn1 [Compound 76, 7-(4-((6-(methoxymethyl)pyridin-3-yl)oxy)piperidin-1-yl)-8-methyl-4H-pyrimido[1,2-b]pyridazin-4-one] | 60 | > 10000 |
| Cc1ccc(OC2CCN(c3nn4c(=O)cc(C(F)F)nc4c(C)c3C)CC2)cn1 [Compound 78, 2-(difluoromethyl)-8,9-dimethyl-7-(4-((6-methylpyridin-3-yl)oxy)piperidin-1-yl)-4H-pyrimido[1,2-b]pyridazin-4-one] | 95 | 76 |
| Cc1c(N2CCC(Oc3ccc(Cl)cc3)CC2)nn2c(=O)cc(C(F)F)nc2c1C [Compound 79, 7-(4-(4-chlorophenoxy)piperidin-1-yl)-2-(difluoromethyl)-8,9-dimethyl-4H-pyrimido[1,2-b]pyridazin-4-one] | 76 | 358 |
| Cc1c(N2CCC(Oc3ccc(C(F)(F)F)cc3)CC2)nn2c(=O)ccnc2c1C [Compound 80, 8,9-dimethyl-7-(4-(4-(trifluoromethyl)phenoxy)piperidin-1-yl)-4H-pyrimido[1,2-b]pyridazin-4-one] | 76 | 2180 |
